Experimental data taken from patent US9717756B2, “Method of treating traumatic brain or spinal cord injury with biomembrane sealing agent and magnesium compounds” (Warsaw Orthopedic, Inc., priority 2006, dated 2017).

Tests used:
[1] = tested on: carrageenan-induced hind paw acute inflammation; experiment: Carrageenan hind paw acute inflammation, mechanical allodynia (up-down method); format: in vivo, rat; conditions: Example 7, 24 hours after carrageenan
Experimental: Animals were treated with saline (0.5% final), indomethacin, PEG, magnesium or combined PEG+magnesium solutions. Each animal received 2 injections, the first one 1 hour following carrageenan injection and the second injection 6 hours later. The total dose of PEG and magnesium chloride administered was of 2 and 0.135 g/kg (body weight) respectively. There were 10 animals per group.
Indomethacin (Fluka, cat. 57413, lot 450544/1) was dissolved in 25% hydroxyl-propyl beta cyclodextrin (hpBCD) by gentle heating and stirring. The PEG solution was composed of PEG3350 at 30% in 0.5% saline, the magnesium solution was composed of magnesium chloride at 2% and the combined PEG+magnesium solution was composed of 30% PEG3350+2% Magnesium Chloride (custom made by AAIPharma Developmental Services, Wilmington, N.C.). […]
Twenty-four hours following carrageenan injection into the left paw, the same paw was tested for mechanical allodynia. Baseline and post-treatment values for non-noxious mechanical sensitivity were evaluated using 8 Semmes-Weinstein filaments (Stoelting, Wood Dale, Ill., USA) with varying stiffness (0.4, 0.7, 1.2, 2.0, 3.6, 5.5, 8.5, and 15 g) according to the up-down method (Chaplan et al., 1994). […]
To evaluate the significance of difference between experimental groups, data were analyzed using an unpaired, two-tailed t statistical test with confidence intervals of 95%.

[2] = tested on: controlled cortical impact model of brain injury (TBI); experiment: Morris Water Maze test of cognitive function after controlled cortical impact TBI; format: in vivo, rat
Description: Male Sprague-Dawley rats (Harlan Sprague-Dawley, Indianapolis, Ind.), weighing 350-450 grams each were given free access to food and water before the experiment. The animals were anesthetized with halothane (1% in 70%/30% NO2/O2 by mask).
Animals were anesthetized with isoflorane and placed in a stereotaxic frame in the supine position. A 6 mm craniotomy located approximately midway between bregma and lambda, just above the somatosensory cortex, was made using a Michele trephine. The skull disk was then removed without disturbing the underlying dura mater. The exposed brain was injured using an electronically controlled piston (5 mm diameter, 65 kdynes). The animals in the “sham” group underwent identical surgical procedures, but the surface of the brain was not impacted.
Following surgery, animals were placed in their home cage and dosing was initiated. Animals were treated with saline (Group 1: sham, Group 2: injured), PEG (Group 3: injured), magnesium (Group 4: injured) or a combination of PEG and magnesium solutions (Group 5: injured). The PEG solution was composed of PEG3350 at 30% in 0.5% saline (custom made by AAIPharma Developmental Services, Wilmington, N.C.). […] The magnesium solution was diluted in saline 1:1 before intravenous injection as recommended by the manufacturer. In the cases of combined PEG+Mg combined treatments, animal received the PEG and magnesium components from two individual solutions.
In more details, each animal received 2 injections: • Group 1: Sham—1.23 ml/kg of saline solution followed by 1.23 ml/kg of saline solution; • Group 2: Injured—1.23 ml/kg of saline solution followed by 1.23 ml/kg of saline solution; • Group 3: Injured—2.33 ml/kg of PEG solution followed by 0.12 ml/kg of saline solution; • Group 4: Injured—0.12 ml/kg of magnesium solution followed by 2.33 ml/kg of saline solution; • Group 5: Injured—2.33 ml/kg of PEG solution followed by 0.12 ml/kg of magnesium solution. […]
The effects of PEG, magnesium sulfate and combined treatment on recovery of cognitive function following TBI were evaluated using the Morris Water Maze Test. […]

pain = conditions: human, in vivo; cited from earlier work
[3] = tested on: spinal cord contusion at T10 (SCI); experiment: Locomotor recovery, modified 12-point BBB scale, after spinal cord contusion (dural impact model); format: in vivo, rat; conditions: Example 4; iv, 15 min and 6 h post-injury; total 2 g/kg PEG, 0.12 g/kg magnesium sulfate
Experimental: Sprague-Dawley female rats (200-225 gm) received a spinal cord contusion using the Precision Scientific Inc pneumatic impactor. Prior to surgery, rats were assigned to different treatment groups based on a randomized block design so that on any given surgery day all treatments would be included. The rats were anesthetized with ketamine (80 mg/kg) and xylazine (10 mg/kg) before a laminectomy will be performed at the 10th thoracic vertebra (T10). The vertebral column was stabilized with angled clamps on the upper thoracic (T8) and lumbar (T11) levels and the impactor with a tip diameter of 2 mm was delivered at approximately 50 kd onto the exposed, intact dura overlying the dorsal spinal cord. The impactor was immediately removed, the wound irrigated with saline, and the muscle and skin openings sutured together. Female animals were used due to the paralysis associated with the injury and ease of voiding the bladder.
Following surgery, animals were placed in their home cage and dosing was initiated. Animals were treated with saline (Group 1: sham, Group 2: injured), PEG (Group 3: injured), magnesium (Group 4: injured) or a combination of PEG and magnesium solutions (Group 5: injured). […]
(§1) To evaluate the significance of difference between experimental groups, data were analyzed using an unpaired, two-tailed t statistical test with confidence intervals of 95%. […]

[4] = tested on: spinal cord contusion at T10 (SCI); experiment: Spinal cord lesion volume after SCI contusion (eriochrome cyanine sections); format: in vivo, rat; conditions: Example 4, sacrificed on day 14, total 2 g/kg PEG, 0.12 g/kg magnesium sulfate
Experimental: Following surgery, animals were placed in their home cage and dosing was initiated. […]
At the end of the study, the spinal cords were extracted and fixed in 4% paraformaldehyde. […] Tissue sparing was determined by computed image analysis be from 10 evenly spaced sections through the injured T10 segment. […]

TBI = conditions: trial initiated in 1999; cited from earlier work
[5] = tested on: neuropathic pain after SCI; experiment: Mechanical allodynia (neuropathic pain score, Semmes-Weinstein monofilament) after SCI; format: in vivo, rat; conditions: Example 6; up to 3 weeks post-injury
Experimental: Animals were prepared as described in Example 3.
Animals were tested for the development of neuropathic pain before and up to 3 weeks post-injury. Neuropathic pain occurrence and severity was evaluated by the response of the animal to a stimulus that is normally not painful or allodynia. Briefly, a modified Semmes-Weinstein monofilament (Stoelting Co, Wood Dale, Ill.) calibrated to generate a force of 15 mN was applied to the dorsal trunk at dermatomes corresponding to spinal segments immediately rostral to the lesion level (T1-T3). The monofilament was applied 10 times for 3 seconds, with each stimulus being separated by a 5 second interval, and the number of avoidance responses out of a possible 10 were recorded. Avoidance responses were defined as flinching, escape, vocalization, or abnormal aggressive behaviors. The scoring system used to monitor mechanical allodynia has been presented in details in Gris et al., 2004. Mechanical allodynia testing was conducted twice per week and the 2 tests were averaged for each animal and reported as a weekly pain score.
To evaluate the significance of difference between experimental groups, data were analyzed using an unpaired, two-tailed t statistical test with confidence intervals of 95%. The Welch's modification was also used to analyze the motor recovery to take in account the significant variability in the control group. […]

stroke = conditions: intravenous, up to 12 hours following stroke onset; 2589 patients; cited from earlier work
[6] = tested on: clip-compression injury at T4 (SCI); experiment: Locomotor recovery, 21-point BBB open field test, after clip-compression SCI; format: in vivo, rat; conditions: Example 5; day 7 post-SCI; total 0.6 g/kg magnesium sulfate iv
Experimental: Wistar female rats weighing 200-250 grams received a controlled clip-compression injury at T4. This experimental model has been previously described in details in Gris et al., 2004. Briefly, animals were premedicated with diazepam (3.5 mg/kg, i.p.) and atropine (0.05 mg/kg, s.c.) in order to facilitate a smooth induction of anesthesia by 4% halothane and maintenance with 1.0-1.5% halothane. The T4 spinal cord segment was exposed by dorsal laminectomy and a modified aneurysm clip, calibrated to 50 grams compression was passed extradurally around the cord and spring released for 60 seconds. Nerve roots were not disrupted during the clip compression.
Following SCI, animals were placed in their home cage and dosing was initiated. […]
Locomotor recovery was assessed by the 21-point Basso, Beatie and Bresnahan (BBB) open field locomotor test (Basso et al., 1995), from day 3-21 after injury. Locomotor function was evaluated by 2 blinded investigators at each testing period.
as §1
Following SCI, rats were treated with saline, PEG, Mg or a combined solution of PEG and Mg. Locomotor recovery was assessed by the 21-point BBB score system from day 3-25 post-injury.

COc1ccc2c(c1)c(CC(=O)O)c(C)n2C(=O)c1ccc(Cl)cc1 [Indomethacin]
mean pain score (mechanical allodynia) ([1]; carrageenan-saline 3.4+/−0.5, sham 12.7+/−1.1, higher is better): 5.6+/−0.9

[Cl-].[Cl-].[Mg+2] [Magnesium, magnesium chloride]
effect on the pain score relative to animals treated with saline ([1]; total 2 g/kg PEG or 0.135 g/kg magnesium chloride): no significant effect
effect on the loss of cognitive functions following brain injury ([2]; summary statement in the description): no effect
duration of analgesic effect (pain): ≤ 4 h

O=S(=O)([O-])[O-].[Mg+2] [Mg, magnesium sulfate]
effect on cognitive functions following TBI ([2]; Example 1, iv, 15 min and 6 h post-injury, total 1.4 g/kg PEG or 0.230 mmol/kg magnesium sulfate): no effect
effect on motor functions following SCI (12-point BBB score) relative to SCI-Saline group [3]: no effect
reduction of the lesion volume relative to control group (SCI-Saline) [4]: 33%
preliminary data of clinical trial in TBI patients (TBI): negative
effect on the development of neuropathic pain after SCI [5]: no significant effect
clinical improvement after stroke (stroke): no significant improvement
effect on motor recovery (21-point BBB) [6]: Some improvement

[Cl-].[Cl-].[Mg+2] [magnesium chloride]
effect on cognitive recovery after TBI ([2]; Example 2, total 1.4 g/kg PEG or 0.230 mmol/kg magnesium chloride): no significant effect
